Data on 26 molecules can be found in ChEMBL document CHEMBL3085701, “Optimization of novel indole-2-carboxamide inhibitors of neurotropic alphavirus replication” (J Med Chem, 2013).

System in the first series: not listed separately
The experiment in a line: Cytotoxicity against human BE(2)-C cells after 18 to 20 hrs by MTT assay. The class given is cell-based. To be noted: BE(2)-C cells. A general note: Tetrazolium dyes change colour on reduction, which living cells bring about.
In general, CC50 refers to the concentration that lowers cell viability or growth by half. A lower CC50 goes with harm at low concentration. `Cn1c(C(=O)N2CCC(C(=O)NCCc3ccncc3)CC2)cc2ccccc21` yielded a CC50 above 50 µM. `O=C(c1cc2ccccc2n1Cc1ccc(Cl)cc1)N1CCC(C(=O)N2CCOCC2)CC1`: the CC50 was above 100 µM. On the same count and under the same terms, to `CN(Cc1ccccc1)C(=O)C1CCN(C(=O)c2cc3ccccc3n2Cc2ccc([N+](=O)[O-])cc2)CC1` belongs above 100 µM; to `CN(Cc1ccccc1)C(=O)C1CCN(C(=O)c2cc3ccccc3n2Cc2ccc(C#N)cc2)CC1`, above 100 µM. `CC(=O)n1c(C(=O)N2CCC(C(=O)N(C)Cc3ccccc3)CC2)cc2ccccc21`: the CC50 is above 50 µM.

As for `COCCn1c(C(=O)N2CCC(C(=O)N(C)Cc3ccccc3)CC2)cc2ccccc21`, the CC50 was above 50 µM. Same read-out and setting: next, `CN1CCC(CNC(=O)C2CCN(C(=O)c3cc4ccccc4n3Cc3ccc(Cl)cc3)CC2)CC1`: above 50 µM; `Cn1ccc(CNC(=O)C2CCN(C(=O)c3cc4ccccc4n3Cc3ccc(Cl)cc3)CC2)n1`: above 100 µM.

The molecule `Cn1cnc(CNC(=O)C2CCN(C(=O)c3cc4ccccc4n3Cc3ccc(Cl)cc3)CC2)c1` had a cytotoxic concentration (CC50) above 50 µM. Same read-out and setting: next, `CC(C)(Cc1ccncc1)NC(=O)C1CCN(C(=O)c2cc3ccccc3n2Cc2ccc(Cl)cc2)CC1`: 43.6 µM; `COc1cccc(CCNC(=O)C2CCN(C(=O)c3cc4ccccc4n3Cc3ccc(Cl)cc3)CC2)c1`: above 100 µM.

Still in this series, the particulars now being: be(2)-c.
In turn, `CC(C)c1ccc(CCNC(=O)C2CCN(C(=O)c3cc4ccccc4n3Cc3ccc(Cl)cc3)CC2)cc1` yielded a CC50 of 27.2 µM. `O=C(c1cc2ccccc2n1Cc1ccc(Cl)cc1)N1CCC(C(=O)N2CCC[C@H]2CO)CC1` had a CC50 of 98.9 µM. The molecule `O=C(c1cc2ccccc2n1Cc1ccc(Cl)cc1)N1CCC(C(=O)N2CCCC2)CC1` returned a CC50 of 65.6 µM. On to `CN(Cc1ccccc1)C(=O)C1CCN(C(=O)c2cc3ccccc3n2Cc2ccc(Cl)cc2)CC1`, for which the CC50 came to 87 µM. On the same count and under the same terms, to `COc1ccc(Cn2c(C(=O)N3CCC(C(=O)N(C)Cc4ccccc4)CC3)cc3ccccc32)cc1` belongs 99.2 µM; to `CC(C)Cn1c(C(=O)N2CCC(C(=O)N(C)Cc3ccccc3)CC2)cc2ccccc21`, 58.2 µM. The same measure, in the same setting: next, `CN(Cc1ccccc1)C(=O)C1CCN(C(=O)c2cc3ccccc3n2Cc2ccccc2)CC1`: 64.8 µM; `CN(Cc1ccccc1)C(=O)C1CCN(C(=O)c2cc3ccccc3n2Cc2ccncc2)CC1`: 80.3 µM; `CN(Cc1ccccc1)C(=O)C1CCN(C(=O)c2cc3ccccc3n2Cc2ccc(C(F)(F)F)cc2)CC1`: 90.3 µM. `O=C(NCCc1ccc(F)cc1)C1CCN(C(=O)c2cc3ccccc3n2Cc2ccc(Cl)cc2)CC1` showed a CC50 of 18.6 µM. The same measure, in the same setting: next, `COc1ccc(CCNC(=O)C2CCN(C(=O)c3cc4ccccc4n3Cc3ccc(Cl)cc3)CC2)cc1`: 11.3 µM. Same read-out and setting: to `O=C(NCCc1ccc(Cl)cc1)C1CCN(C(=O)c2cc3ccccc3n2Cc2ccc(Cl)cc2)CC1` belongs 40.4 µM.

The next series deals with Western equine encephalitis virus. The experiment in a line: Antiviral activity against Western equine encephalomyelitis virus infected in human BE(2)-C cells assessed as inhibition of viral RNA replication after 18 to 20 hrs by luciferase reporter gene assay. The class given is functional, cell-based.
Conditions: not given
(Reporter assays use an easily measured gene product as a stand-in for the process of interest.)
What is called IC50 is the concentration needed to halve the response being measured. For `O=C(NCc1ccco1)C1CCN(C(=O)c2cc3sccc3n2Cc2ccc(F)cc2)CC1`, the IC50 is 23.7 µM. On the same count and under the same terms, next, `O=C(NCc1cccnc1)C1CCN(C(=O)c2cc3ccccc3n2Cc2ccc(Cl)cc2)CC1`: 11.4 µM; `Cn1c(C(=O)N2CCC(C(=O)NCCc3ccncc3)CC2)cc2ccccc21`: above 50 µM.

As to `CC(C)c1ccc(CCNC(=O)C2CCN(C(=O)c3cc4ccccc4n3Cc3ccc(Cl)cc3)CC2)cc1`, the IC50 stood at 10.8 µM.

On to `O=C(c1cc2ccccc2n1Cc1ccc(Cl)cc1)N1CCC(C(=O)N2CCC[C@H]2CO)CC1`, for which the IC50 came to 30.6 µM.

Turning to `O=C(c1cc2ccccc2n1Cc1ccc(Cl)cc1)N1CCC(C(=O)N2CCCC2)CC1`, the IC50 stood at 22.2 µM. Same read-out and setting: next, `O=C(c1cc2ccccc2n1Cc1ccc(Cl)cc1)N1CCC(C(=O)N2CCOCC2)CC1`: 12.8 µM.

On to `CN(Cc1ccccc1)C(=O)C1CCN(C(=O)c2cc3ccccc3n2Cc2ccc(Cl)cc2)CC1`, for which the IC50 amounted to 16.9 µM. Same read-out and setting: next, `CN(Cc1ccccc1)C(=O)C1CCN(C(=O)c2cc3ccccc3n2Cc2ccc([N+](=O)[O-])cc2)CC1`: 61.3 µM; `CN(Cc1ccccc1)C(=O)C1CCN(C(=O)c2cc3ccccc3n2Cc2ccc(C#N)cc2)CC1`: 95.9 µM. The same measure, in the same setting: next, `COc1ccc(Cn2c(C(=O)N3CCC(C(=O)N(C)Cc4ccccc4)CC3)cc3ccccc32)cc1`: 16.5 µM; `CC(=O)n1c(C(=O)N2CCC(C(=O)N(C)Cc3ccccc3)CC2)cc2ccccc21`: above 50 µM. On the same count and under the same terms, next, `COCCn1c(C(=O)N2CCC(C(=O)N(C)Cc3ccccc3)CC2)cc2ccccc21`: above 50 µM. As for `CC(C)Cn1c(C(=O)N2CCC(C(=O)N(C)Cc3ccccc3)CC2)cc2ccccc21`, the IC50 came out at 27.9 µM.

`CN(Cc1ccccc1)C(=O)C1CCN(C(=O)c2cc3ccccc3n2Cc2ccccc2)CC1`: the IC50 was 17 µM. Still for that read-out and setting: to `CN(Cc1ccccc1)C(=O)C1CCN(C(=O)c2cc3ccccc3n2Cc2ccncc2)CC1` belongs 24.2 µM; to `CN(Cc1ccccc1)C(=O)C1CCN(C(=O)c2cc3ccccc3n2Cc2ccc(C(F)(F)F)cc2)CC1`, 35.1 µM. The same measure, in the same setting: to `O=C(NCc1ccccc1)C1CCN(C(=O)c2cc3ccccc3n2Cc2ccc(Cl)cc2)CC1` belongs 15.6 µM. Still for that read-out and setting: to `CN1CCC(CNC(=O)C2CCN(C(=O)c3cc4ccccc4n3Cc3ccc(Cl)cc3)CC2)CC1` belongs above 50 µM. For the molecule `Cn1ccc(CNC(=O)C2CCN(C(=O)c3cc4ccccc4n3Cc3ccc(Cl)cc3)CC2)n1`, the IC50 stood at 76.9 µM. Still for that read-out and setting: to `Cn1cnc(CNC(=O)C2CCN(C(=O)c3cc4ccccc4n3Cc3ccc(Cl)cc3)CC2)c1` belongs above 50 µM; to `CC(C)(Cc1ccncc1)NC(=O)C1CCN(C(=O)c2cc3ccccc3n2Cc2ccc(Cl)cc2)CC1`, 19.3 µM; to `COc1cccc(CCNC(=O)C2CCN(C(=O)c3cc4ccccc4n3Cc3ccc(Cl)cc3)CC2)c1`, 11.1 µM.

Consider `O=C(NCCc1ccc(F)cc1)C1CCN(C(=O)c2cc3ccccc3n2Cc2ccc(Cl)cc2)CC1`, for which the IC50 amounted to 21.4 µM. On the same count and under the same terms, next, `COc1ccc(CCNC(=O)C2CCN(C(=O)c3cc4ccccc4n3Cc3ccc(Cl)cc3)CC2)cc1`: 15.5 µM; `O=C(NCCc1ccc(Cl)cc1)C1CCN(C(=O)c2cc3ccccc3n2Cc2ccc(Cl)cc2)CC1`: 8.1 µM.
